In PubChem BioAssay (NCI):
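A five-concentration, 48-hour dose response in 96-well plates underlies each endpoint, interpolated linearly between surrounding concentrations. GI50: concentration for 50% inhibition of growth. Definition used: TGI = concentration required for complete inhibition of growth.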

Legend:
Assay in all cases: NCI tumour cell line growth inhibition, 48 h
NCI-H522 lung = test system: NCI-H522 lung
K-562 leukemia = test system: K-562 leukemia
HL-60(TB) leukemia = test system: HL-60(TB) leukemia
HOP-62 NSCLC = test system: HOP-62 NSCLC
U251 CNS = test system: U251 CNS
RXF 393 renal = test system: RXF 393 renal
NCI-H460 lung = test system: NCI-H460 lung
SK-MEL-5 melanoma = test system: SK-MEL-5 melanoma
SNB-19 CNS = test system: SNB-19 CNS
COLO 205 colon = test system: COLO 205 colon

| SMILES | TGI (NCI-H522 lung) [µM] | TGI (K-562 leukemia) [µM] | TGI (HL-60(TB) leukemia) [µM] | TGI (HOP-62 NSCLC) [µM] | TGI (U251 CNS) [µM] | TGI (RXF 393 renal) [µM] | TGI (NCI-H460 lung) [µM] | TGI (SK-MEL-5 melanoma) [µM] | TGI (SNB-19 CNS) [µM] | TGI (COLO 205 colon) [µM] | GI50 (U251 CNS) [µM] | GI50 (RXF 393 renal) [µM] | GI50 (NCI-H460 lung) [µM] | GI50 (SK-MEL-5 melanoma) [µM] | GI50 (SNB-19 CNS) [µM] | GI50 (NCI-H522 lung) [µM] | GI50 (K-562 leukemia) [µM] | GI50 (HL-60(TB) leukemia) [µM] | GI50 (HOP-62 NSCLC) [µM] | GI50 (COLO 205 colon) [µM] |
| --- | --- | --- | --- | --- | --- | --- | --- | --- | --- | --- | --- | --- | --- | --- | --- | --- | --- | --- | --- | --- |
| O=C(O)c1cc2ccccc2c(Cc2c(O)c(C(=O)O)cc3ccccc23)c1O | > 100 | > 100 | > 100 | > 100 | > 100 | > 100 | > 100 | > 100 | > 100 |  |  |  |  |  |  |  |  |  |  |  |
| O=C(Nc1ccccc1)c1cc2ccccc2c(N=Nc2cccc([N+](=O)[O-])c2)c1O | > 100 | > 100 |  | > 100 | > 100 | > 100 | > 100 | > 100 | 97.2 | > 100 |  |  |  |  |  |  |  |  |  |  |
| COc1cccc(N/C(C)=C2/CCOC2=O)c1 | > 10 |  | > 10 | > 10 | > 10 | > 10 | > 10 | > 10 | > 10 | > 10 |  |  |  |  |  |  |  |  |  |  |
| C=C1CC[C@@]2(C)[C@@H]([C@@H]1C)[C@H]1CC[C@@H]3[C@@]4(C)CC[C@H](O)C(C)(C)[C@@H]4CC[C@@]3(C)[C@]1(C)C[C@@H]2O | 4.52 |  | > 55.7 | 9.18 |  | 4.04 | 4.7 | > 50.3 | 8.44 | > 100 |  |  |  |  |  |  |  |  |  |  |
| O=C([CH-]C(=O)c1ccccc1)c1ccccc1.[C-]#[O+].[C-]#[O+].[Ir] |  |  |  |  | > 100 | > 100 | > 100 | > 100 | > 100 |  | 36.4 | 33.6 | 39.7 | 39.3 | 66.4 |  |  |  |  |  |
| CC1(CO)C(O)CCC2(C)C1CCC1CC3CC12CCC3(O)CO (stereo not drawn) | > 100 | > 100 | > 100 |  | > 100 | > 100 | > 100 | > 100 | > 100 | > 100 |  |  |  |  |  |  |  |  |  |  |
| COc1ccc(CN(CCN(C)C)c2ccccn2)cc1 (tested in a mixture with another compound) | > 100 | > 100 |  | > 100 | > 100 |  |  | > 100 | > 100 |  |  |  |  |  |  |  |  |  |  |  |
| Cc1cc(N(CCC#N)S(=O)(=O)c2ccccc2)ccc1C=Nc1cccc(C(=O)O)c1 | > 100 | > 100 | > 100 | > 100 | > 100 | > 100 | > 100 | > 100 | > 100 | > 100 |  |  |  |  |  |  |  |  |  |  |
| C1=N[C@]23C(=N[C@H](N=C2NCc2ccco2)[C@]24N=CNC2=N[C@H]3N=C4NCc2ccco2)N1 | > 100 | > 100 | > 100 | > 100 | > 100 | > 100 | > 100 | > 100 | > 100 | > 100 | > 100 | > 100 | > 100 | > 100 | > 100 | > 100 | > 100 | > 100 | > 100 | > 100 |
| O=C(NN1C(=O)C(Cl)C1c1cccc(O)c1)c1ccccc1O (stereo not drawn) | > 100 | > 100 | > 100 |  | > 100 | > 100 | > 100 | > 100 | > 100 |  |  |  |  |  |  |  |  |  |  |  |
